The text below walks through data of PubChem BioAssay (NCI).

Some test systems named below: XF 498 CNS; KM20L2 colon; RXF-631 renal; LXFL 529 NSCLC; SNB-78 CNS; DMS 114 small cell lung; DMS 273 small cell lung; DLD-1 colon; MDA-MB-435; HS 578T breast; MDA-MB-231 breast; BT-549 breast; T-47D breast; DU-145 prostate; MDA-N; P388 leukemia; HOP-18 NSCLC.
Assay in all cases: NCI tumour cell line growth inhibition, 48 h

Values joined by “and” are separate entries in the source; they are usually repeats but may differ in a detail not shown here. Equal values may be shown once.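 1) Cells in 96-well plates. 2) Compound, 48 h, 5 concentrations. 3) Linear interpolation between surrounding doses. 4) Unreached endpoint = highest concentration. GI50 is the concentration that inhibits growth by half. TGI is the concentration that stops growth completely.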 Bounds are passed on as bounds.

In the case of `CCOC(=O)[C@H]1Nc2c(cccc2[N+](=O)[O-])C2c3ccccc3CC21` (some centres undefined), the TGI in the experiment on XF 498 CNS, with KM20L2 colon, in the experiment with RXF-631 renal, in the experiment with LXFL 529 NSCLC, in the experiment on SNB-78 CNS and with DMS 114 small cell lung was over 100 µM in each case. Besides, the TGI in the experiment with DMS 273 small cell lung and with DLD-1 colon was over 100 µM throughout.
In the case of `Fc1ccc(C(OCCN2CC3CC2CN3)c2ccc(F)cc2)cc1` (centres undefined), the TGI was 53.8 µM in the experiment on MDA-MB-435; over 100 µM with HS 578T breast; over 100 µM in the experiment on MDA-MB-231 breast; over 100 µM in the experiment with BT-549 breast; over 100 µM with T-47D breast; over 100 µM in the experiment on DU-145 prostate.
Turning to `Clc1ccc(-c2nnc(-c3nsc4ccccc34)o2)cc1`, the TGI in the experiment on KM20L2 colon, in the experiment on LXFL 529 NSCLC, in the experiment on SNB-78 CNS, in the experiment on DMS 114 small cell lung and with DMS 273 small cell lung was over 100 µM throughout.
As for `c1csc(C(NC2=NCCO2)C2CC2)c1` (centres undefined), the TGI with HS 578T breast, with MDA-MB-231 breast, in the experiment on MDA-N and in the experiment on T-47D breast was over 100 µM each time.
Consider `CO/C(=N\N=C(/c1ccccc1)C(F)(F)F)c1ccncc1`, for which the TGI with MDA-MB-435, in the experiment with HS 578T breast, in the experiment on MDA-MB-231 breast, in the experiment on BT-549 breast, in the experiment with T-47D breast and with DU-145 prostate was over 100 µM throughout.
As to `N/C(=N\N=C/c1cc([N+](=O)[O-])cc([N+](=O)[O-])c1O)NO`, the TGI in the experiment on XF 498 CNS is 98.1 µM; in the experiment on KM20L2 colon, over 100 µM; in the experiment with P388 leukemia it was 21.9 µM; in the experiment with SNB-78 CNS it was over 100 µM; in the experiment on HOP-18 NSCLC, over 100 µM; in the experiment with DMS 114 small cell lung, over 100 µM. The figures for the TGI with DMS 273 small cell lung and in the experiment with DLD-1 colon were over 43.3 µM and over 100 µM, respectively.
In the case of `CCN1C(=O)N2C(OC)c3ccccc3C(Br)C2(OC)C1=O` (centres undefined), the TGI with KM20L2 colon, in the experiment with RXF-631 renal, with LXFL 529 NSCLC, with DMS 114 small cell lung, in the experiment on DMS 273 small cell lung and in the experiment on DLD-1 colon was over 100 µM each time.
Turning to `Cc1cc(C)c(S(=O)(=O)N(CCCN)OCCCN)c(C)c1`, the TGI in the experiment with MDA-MB-435, in the experiment with HS 578T breast, in the experiment on MDA-MB-231 breast, in the experiment on MDA-N, in the experiment on BT-549 breast and in the experiment on T-47D breast was over 100 µM each time. For the same compound, the TGI with DU-145 prostate was over 100 µM.
In the case of `Clc1cccc(C2SCc3nc4ccccc4n32)c1` (centres undefined), the TGI with LXFL 529 NSCLC was over 100 µM; in the experiment on SNB-78 CNS, 87.5 µM; with HOP-18 NSCLC, 47.5 µM; in the experiment on DLD-1 colon, 34.1 µM.
With `O=c1[nH]c(=S)[nH]c2c(C3OC(CO)C(O)C3O)nsc12` (centres undefined), the TGI in the experiment on MDA-MB-435, in the experiment with HS 578T breast, with MDA-N, with BT-549 breast, with T-47D breast and in the experiment with DU-145 prostate was over 100 µM throughout.
On to `CC1=NN(C(=O)c2ccc(C)cc2)C(=O)C1N=Nc1ccccc1C(=O)O` (centres undefined), for which the TGI was over 100 µM with XF 498 CNS; over 100 µM with KM20L2 colon; over 51.5 µM in the experiment on P388 leukemia; over 100 µM in the experiment on SNB-78 CNS; over 100 µM in the experiment on HOP-18 NSCLC; over 100 µM with DMS 114 small cell lung. Besides, the TGI in the experiment on DMS 273 small cell lung and with DLD-1 colon was over 100 µM each time.
`CC(=O)Nc1cc(/C=C\C(=O)N2CC(CCl)c3c2cc(N)c2ccccc32)n(C)n1` (centres undefined): the GI50 in the experiment with MDA-MB-435 is 0.0131 µM; in the experiment on MDA-N it was 0.0136 µM; in the experiment with BT-549 breast, 0.0225 µM. For the same compound, the TGI was 0.0399 µM and 0.0497 µM in the experiment on MDA-MB-435; 0.0411 µM and 0.0435 µM with MDA-N; over 100 µM in the experiment on DU-145 prostate.
